Paper PMC3092815 (Proteins, 2011)

How the values were obtained:
[1] = target: T1, C. perfringens PepcA (archaeal-type phosphoenolpyruvate carboxylase) (Clostridium perfringens, UniProt Q8XLE8); assay: biochemical
[2] = target: T1, C. perfringens PepcA (archaeal-type phosphoenolpyruvate carboxylase)

## N[C@@H](CC(=O)O)C(=O)O [aspartate]
[1]
  Ki: 200 µM

## Mg^++.PEP
[2]
  Km: 60 µM
